Source: US6858591B2, “Antibiotic AA 896 analogs” (Wyeth Holdings Corporation, priority 2001, dated 2005)
In brackets after ≈: the same amount, converted by molar mass.

Key:
Assay in all cases: In vitro MIC, broth dilution
Type in all cases: cell-based
C. albicans GC 3066 = conditions: Candida albicans, GC3066; C. albicans GC 3066; read-out: MIC
E. coli GC 4559 = conditions: Escherichia coli, GC4559; E. coli GC 4559; read-out: MIC
P. aeruginosa GC 2214 = conditions: Pseudomonas aeruginosa, GC2214; P. aeruginosa GC 2214; read-out: MIC
E. coli GC 2203 = conditions: Escherichia coli, GC2203; E. coli GC 2203; read-out: MIC
E. coli GC 4560 = conditions: Escherichia coli, GC4560; E. coli GC 4560; read-out: MIC
S. marcescens GC 4077 = conditions: Serratia marcescens, GC4077; S. marcescens GC 4077; read-out: MIC
E. coli GC 3226 = conditions: Escherichia coli, GC3226; E. coli GC 3226; read-out: MIC
M. morganii GC 4531 = conditions: Morganella morganii, GC4531; M. morganii GC 4531; read-out: MIC
S. aureus GC 4536 = conditions: Staphylococcus aureus, GC4536; S. aureus GC 4536; read-out: MIC
How it was run: (§1)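 NCCLS broth dilution; Mueller-Hinton II; 5×10^5 CFU/ml; 64-0.06 μg/ml; 18 h, 35 °C, ambient air; MIC read as lowest growth-inhibiting concentration.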

CNS GC 4538 = conditions: CNS GC 4538; read-out: MIC
How it was run: as §1

CNS GC 4537 = conditions: CNS GC 4537; read-out: MIC
How it was run: as §1

E. faecalis GC 2242 = conditions: Enterococcus faecalis, GC2242; E. faecalis GC 2242; read-out: MIC
How it was run: as §1

E. faecalis GC 842 = conditions: Enterococcus faecalis, GC842; E. faecalis GC 842; read-out: MIC
How it was run: as §1

E. faecalis GC 4555 = conditions: Enterococcus faecalis, GC4555; E. faecalis GC 4555; read-out: MIC
How it was run: as §1

S. aureus GC 2216 = conditions: Staphylococcus aureus, GC2216; S. aureus GC 2216; read-out: MIC
How it was run: as §1

S. aureus GC 1131 = conditions: Staphylococcus aureus, GC1131; S. aureus GC 1131; read-out: MIC
How it was run: as §1

CNS GC 4547 = conditions: CNS GC 4547; read-out: MIC
How it was run: as §1

E. cloacae GC 3783 = conditions: Enterobacter cloacae, GC3783; E. cloacae GC 3783; read-out: MIC
P. aeruginosa GC 4532 = conditions: Pseudomonas aeruginosa, GC4532; P. aeruginosa GC 4532; read-out: MIC
K. pneumoniae GC 4534 = conditions: Klebsiella pneumoniae, GC4534; K. pneumoniae GC 4534; read-out: MIC

SMILES | MIC (C. albicans GC 3066) [µg/mL] | MIC (E. coli GC 4559) [µg/mL] | MIC (P. aeruginosa GC 2214) [µg/mL] | MIC (E. coli GC 2203) [µg/mL] | MIC (E. coli GC 4560) [µg/mL] | MIC (S. marcescens GC 4077) [µg/mL] | MIC (E. coli GC 3226) [µg/mL] | MIC (M. morganii GC 4531) [µg/mL] | MIC (S. aureus GC 4536) [µg/mL] | MIC (CNS GC 4538) [µg/mL] | MIC (CNS GC 4537) [µg/mL] | MIC (E. faecalis GC 2242) [µg/mL] | MIC (E. faecalis GC 842) [µg/mL] | MIC (E. faecalis GC 4555) [µg/mL] | MIC (S. aureus GC 2216) [µg/mL] | MIC (S. aureus GC 1131) [µg/mL] | MIC (CNS GC 4547) [µg/mL] | MIC (E. cloacae GC 3783) [µg/mL] | MIC (P. aeruginosa GC 4532) [µg/mL] | MIC (K. pneumoniae GC 4534) [µg/mL]
COc1ccc(Cn2c(=O)ccn([C@@H]3OC([C@H](O)[C@H](NCCCNC(=O)[C@@H](N)[C@H](C)O)C(=O)OC(C)(C)C)[C@@H](O[Si](C)(C)C(C)(C)C)[C@H]3O[Si](C)(C)C(C)(C)C)c2=O)cc1 (stereo partly drawn) [Example 11, tert-Butyl (2S,3R)-2-[(3-{[(2S,3S)-2-amino-3-hydroxybutanoyl]amino}propyl)amino]-3-[(3R,4R,5R)-3,4-bis{[tert-butyl(dimethyl)silyl]oxy}-5-(3-(4-methoxybenzyl)-2,4-dioxo-3,4-dihydro-1(2H)-pyrimidinyl)tetrahydro-2-furanyl]-3-hydroxypropanoate] | > 128 | > 128 | 128 (≈ 145 µM) | > 128 | > 128 | > 128 | > 128 | > 128 | 4 (≈ 4.54 µM) | 4 (≈ 4.54 µM) | 4 (≈ 4.54 µM) | 8 (≈ 9.09 µM) | 4 (≈ 4.54 µM) | 4 (≈ 4.54 µM) | 4 (≈ 4.54 µM) | 8 (≈ 9.09 µM) | 8 (≈ 9.09 µM) | > 128 | > 128 | > 128
COc1ccc(Cn2c(=O)ccn([C@@H]3OC([C@H](O)[C@H](NCCCNC(=O)[C@@H](N)C(C)O)C(=O)O)[C@@H](O)[C@H]3O[Si](C)(C)C(C)(C)C)c2=O)cc1 (stereo partly shown) [Example 48] | 128 (≈ 180 µM) | > 128 | > 128 | > 128 | 128 (≈ 180 µM) | 128 (≈ 180 µM) | > 128 | 128 (≈ 180 µM) | > 128 | > 128 | > 128 | 64 (≈ 90.2 µM) | 128 (≈ 180 µM) | 128 (≈ 180 µM) | > 128 | > 128 | 128 (≈ 180 µM) | > 128 | 128 (≈ 180 µM) | > 128
